Experimental data as given in ChEMBL document CHEMBL1201862, “PubChem BioAssay data set” (2004).
Activity calls are given as the source filed them.

What was measured:
[1] = P. falciparum Dd2 growth inhibitors, dose response, SYBR Green, cherry-picked samples (AID 1159567); assay type: functional, cell-based
[2] = growth inhibition of PfATP4-mutant resistant parasites – NITD609-resistant line, SYBR Green, dry powder, dose response (AID 1159571); assay type: functional, cell-based;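 note: parasites synchronized at ring stage by sorbitol before testing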
[3] = Dd2 malaria parasite growth inhibition potency – SYBR Green, dry powder samples, dose response (AID 1159566); assay type: functional, cell-based;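 note: potency for growth inhibition with lower SYBR green DNA signal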
[4] = growth inhibition of yeast DHODH-expressing 3D7 parasites – SYBR Green, dry powder samples, dose response (AID 1159570); assay type: functional, cell-based;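 note: parasite growth measured after 72 hours of compound exposure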
[5] = molecular target: T1, Low molecular weight phosphotyrosine protein phosphatase (Homo sapiens, UniProt P24666); assay type: functional; details: read-out: IC50_Mean;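 note: Dose-response confirmation assay measuring inhibition of LMPTP enzyme activity by fluorescence intensity read-out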
T1 sequence (P24666 whole entry): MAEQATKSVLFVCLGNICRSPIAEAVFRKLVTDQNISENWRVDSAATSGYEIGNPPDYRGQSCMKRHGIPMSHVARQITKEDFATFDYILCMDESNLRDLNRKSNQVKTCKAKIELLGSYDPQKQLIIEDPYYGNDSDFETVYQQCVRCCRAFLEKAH

Hexokinase HKDC1 = molecular target: T2, Hexokinase HKDC1 (Homo sapiens, UniProt Q2TB90); assay: inhibition of HKDC1 glucose phosphorylation – biochemical, W721R variant, dose response (AID 504729); assay type: functional
T2 sequence (Q2TB90 whole entry): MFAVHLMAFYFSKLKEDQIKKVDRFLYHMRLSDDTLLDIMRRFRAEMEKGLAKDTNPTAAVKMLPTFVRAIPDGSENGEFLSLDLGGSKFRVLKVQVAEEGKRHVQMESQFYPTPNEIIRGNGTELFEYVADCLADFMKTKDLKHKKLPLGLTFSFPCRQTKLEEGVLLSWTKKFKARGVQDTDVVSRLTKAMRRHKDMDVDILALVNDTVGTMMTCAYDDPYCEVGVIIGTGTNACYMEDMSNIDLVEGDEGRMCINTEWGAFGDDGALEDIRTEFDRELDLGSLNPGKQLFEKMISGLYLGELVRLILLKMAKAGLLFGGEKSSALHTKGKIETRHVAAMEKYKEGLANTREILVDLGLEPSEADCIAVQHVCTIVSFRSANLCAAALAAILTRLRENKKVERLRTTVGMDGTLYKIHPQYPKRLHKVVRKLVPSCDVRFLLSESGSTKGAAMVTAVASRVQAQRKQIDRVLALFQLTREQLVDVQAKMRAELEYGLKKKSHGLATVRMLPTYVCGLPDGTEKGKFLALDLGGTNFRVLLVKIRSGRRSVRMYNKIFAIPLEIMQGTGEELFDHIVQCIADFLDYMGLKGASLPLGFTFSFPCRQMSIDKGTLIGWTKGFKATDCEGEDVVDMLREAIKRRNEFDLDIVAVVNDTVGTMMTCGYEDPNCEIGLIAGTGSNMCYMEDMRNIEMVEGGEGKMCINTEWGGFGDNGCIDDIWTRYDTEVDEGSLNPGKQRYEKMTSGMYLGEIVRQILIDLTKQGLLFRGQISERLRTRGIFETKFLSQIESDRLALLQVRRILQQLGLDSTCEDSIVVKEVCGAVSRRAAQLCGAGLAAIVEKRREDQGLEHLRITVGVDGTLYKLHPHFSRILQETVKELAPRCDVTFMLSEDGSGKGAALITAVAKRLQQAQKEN

[6] = reduction of Shn3 3'UTR-driven luciferase in osteoblasts – cell-based, Clone20 osteoblasts, firefly luciferase, cherry-picked, dose response (AID 624132); assay type: functional;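 note: firefly luciferase luminescence from reporter carrying the Shn3 3'UTR in osteoblasts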
HEK293 [7] = assay: cells; assay type: functional, cell-based; details: Homo sapiens
[8] = non-specific 3'UTR reporter inhibition in Clone20-Shn3RL – cell-based, Renilla luciferase, cherry-picked, counter-screen for Shn3 inhibitor project, dose response (AID 624133); assay type: functional
HEK293 [9] = assay: cells; assay type: functional, cell-based; details: Homo sapiens; remark: listed apart in the source
HEK293 [10] = assay: NOD2 signaling inhibitors in MDP-stimulated cells, cell-based, uHTS, luminescence (AID 2001); assay type: functional; details: Homo sapiens
HEK293 [11] = assay: inhibition of NOD1-driven NF-kB reporter – cell-based, luminescence, uHTS, primary screen (AID 1578); assay type: functional; details: Homo sapiens
HEK293 [12] = assay: cells; assay type: functional, cell-based; details: Homo sapiens; remark: listed apart in the source
[13] = molecular target: Nucleotide-binding oligomerization domain-containing protein 2 (Homo sapiens, UniProt Q9HC29); assay: inhibition of NOD2-driven NF-kB reporter – cell-based, luminescence, uHTS, HEK293 (AID 1566); assay type: functional
Sequence of Nucleotide-binding oligomerization domain-containing protein 2 (Q9HC29 whole entry, the tested form may be a part): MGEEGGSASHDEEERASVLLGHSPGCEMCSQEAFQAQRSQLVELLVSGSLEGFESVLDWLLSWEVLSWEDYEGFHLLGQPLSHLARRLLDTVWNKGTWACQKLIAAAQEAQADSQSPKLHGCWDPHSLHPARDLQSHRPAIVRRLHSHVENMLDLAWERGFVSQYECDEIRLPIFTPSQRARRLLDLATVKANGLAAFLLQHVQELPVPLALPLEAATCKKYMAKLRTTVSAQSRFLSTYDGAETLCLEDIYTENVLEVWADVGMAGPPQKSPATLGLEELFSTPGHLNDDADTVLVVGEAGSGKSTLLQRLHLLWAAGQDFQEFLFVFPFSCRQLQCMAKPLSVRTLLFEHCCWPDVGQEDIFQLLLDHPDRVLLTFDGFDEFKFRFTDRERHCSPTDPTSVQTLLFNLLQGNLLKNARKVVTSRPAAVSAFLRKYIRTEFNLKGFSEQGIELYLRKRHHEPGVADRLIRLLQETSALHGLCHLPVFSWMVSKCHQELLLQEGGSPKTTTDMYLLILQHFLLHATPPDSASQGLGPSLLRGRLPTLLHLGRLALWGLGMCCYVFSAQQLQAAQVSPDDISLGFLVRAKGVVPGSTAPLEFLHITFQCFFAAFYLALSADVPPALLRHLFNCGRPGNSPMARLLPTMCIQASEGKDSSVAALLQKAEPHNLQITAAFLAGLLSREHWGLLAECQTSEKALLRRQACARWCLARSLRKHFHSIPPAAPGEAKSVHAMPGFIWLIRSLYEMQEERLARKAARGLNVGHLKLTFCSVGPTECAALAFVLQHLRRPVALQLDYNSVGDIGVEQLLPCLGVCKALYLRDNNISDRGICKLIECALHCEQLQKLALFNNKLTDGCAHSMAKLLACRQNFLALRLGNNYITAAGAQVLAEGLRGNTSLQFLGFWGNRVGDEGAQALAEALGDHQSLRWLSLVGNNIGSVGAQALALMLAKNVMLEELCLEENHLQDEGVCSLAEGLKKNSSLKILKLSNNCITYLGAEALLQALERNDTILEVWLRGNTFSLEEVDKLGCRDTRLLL

Paired box protein Pax-8 = Paired box protein Pax-8 (Homo sapiens, UniProt Q06710); assay: PAX8 transcriptional activity inhibition in RMG-I – RMG-I cells, luciferase, cherry-pick, dose response (AID 687027); assay type: functional, cell-based;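 note: luciferase reporter driven by Pax8 target thyroperoxidase promoter measured by SteadyGlo luminescence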
Sequence of Paired box protein Pax-8 (Q06710 whole entry): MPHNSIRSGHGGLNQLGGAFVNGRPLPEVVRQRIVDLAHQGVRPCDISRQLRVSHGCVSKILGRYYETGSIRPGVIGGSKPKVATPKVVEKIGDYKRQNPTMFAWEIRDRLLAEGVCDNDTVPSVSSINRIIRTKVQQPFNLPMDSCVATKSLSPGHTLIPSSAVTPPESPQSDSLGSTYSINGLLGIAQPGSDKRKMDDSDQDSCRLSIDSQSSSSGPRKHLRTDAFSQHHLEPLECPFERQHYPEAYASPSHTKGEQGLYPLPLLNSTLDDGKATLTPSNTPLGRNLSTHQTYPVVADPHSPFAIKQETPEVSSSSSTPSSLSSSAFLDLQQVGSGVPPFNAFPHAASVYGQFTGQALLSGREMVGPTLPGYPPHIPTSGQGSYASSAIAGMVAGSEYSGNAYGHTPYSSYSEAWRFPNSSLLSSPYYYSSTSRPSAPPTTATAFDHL

[14] = OVCAR8 cell viability loss – plate reader, dry powder samples, PAX8 project, dose response (AID 743197); assay type: functional, cell-based; details: OVCAR-8
[15] = OVCAR-3 cell viability loss – plate reader, dry powder samples, PAX8 inhibitor project, dose response (AID 743044); assay type: functional, cell-based
[16] = IGROV1 cell killing – plate reader, dry powder samples, PAX8 inhibitor project, dose response (AID 743043); assay type: functional, cell-based; details: IGROV-1

What does the source list for CCCC(=O)N1CC2(C1)CN(S(=O)(=O)c1ccc(C)cc1)[C@@H](CO)c1[nH]c3cc(OC)ccc3c12?
AC50 [1]: 2.14 µM (active); AC50 [2]: 1.67 µM (active); AC50 [3]: 1.65 µM (active); AC50 [4]: 3.18 µM (active)

Which IC50 [5] does the source give for CCn1cc(C(=O)O)c(=O)c2cc(F)c(N3CCN(C(=S)NC(=O)c4cccc(C)c4)CC3)cc21 here?
Its IC50 is 2.74 µM (active).

With O=C(Nc1ccccc1-c1nc2ccccc2s1)C1=COCCO1 as the molecule, how does the IC50 [5] read?
Its IC50 is 11.7 µM (active).

For COc1ccc(S(=O)(=O)Nc2cccc3c2O[C@H](CN(C)Cc2ccc(-c4ccccc4)cc2)[C@@H](C)CN([C@H](C)CO)C3=O)cc1, which AC50 [1] is on record?
Its AC50 is 0.955 µM (active).

And the AC50 [2]?
Its AC50 is 0.696 µM (active).

What about the AC50 [3] of the same molecule?
Its AC50 is 0.587 µM (active).

What about the AC50 [4] of the same molecule?
Its AC50 is 1.02 µM (active).

For CCOC(=O)CSc1nc2ccc(C)cc2n2cnnc12, which IC50 (Hexokinase HKDC1) is on record?
Its IC50 is 9.55 µM (active).

With COc1cc(OC)c(OC)cc1/C=C1\CC(C)C/C(=C\c2cc(OC)c(OC)cc2OC)C1=O (centres undefined) as the molecule, how does the AC50 [6] read?
Its AC50 is 3.22 µM (active).

And the IC50 (HEK293 [7])?
The IC50 was 5.7 µM (active).

What about the AC50 [8] of the same molecule?
Its AC50 is 5.08 µM (active).

What about the IC50 (HEK293 [9]) of the same molecule?
The IC50 was 15.7 µM (active).

What about the IC50 (HEK293 [10]) of the same molecule?
The IC50 was 6.92 µM (active).

What about the EC50 (HEK293 [11]) of the same molecule?
Its EC50 is 6.38 µM (active).

What about the IC50 (HEK293 [12]) of the same molecule?
The IC50 was > 20 µM (inactive).

What about the EC50 [13] of the same molecule?
The EC50 was 7.31 µM (active).

For C[C@H](CO)N1C[C@H](C)[C@@H](CN(C)Cc2ccc(-c3ccccc3)cc2)Oc2ccc(NS(=O)(=O)c3ccc(F)cc3)cc2CC1=O, which AC50 (Paired box protein Pax-8) is on record?
Its AC50 is 8.82 µM (active).

What about the AC50 [14] of the same molecule?
The AC50 was 55.8 µM (active).

And the AC50 [15]?
Its AC50 is 29.7 µM (active).

What about the AC50 [16] of the same molecule?
Its AC50 is 27.8 µM (active).

With CCn1cc(C(=O)O)c(=O)c2cc(F)c(N3CCN(C(=S)NC(=O)c4ccc(Br)cc4)CC3)cc21 as the molecule, how does the IC50 [5] read?
Its IC50 is 3.17 µM (active).
